# According to patent publication US20040248801A1, “Methods and reagents for regulation of cellular responses in biological systems” (priority 2000, published 2004):
# Tests used:
# [1] = target: glucose/galactose-binding protein (GGBP) (Escherichia coli, UniProt P0AEE5); assay: in vitro binding assay with purified GGBP
# Text: The molecular events leading to bacterial chemotaxis have been well studied, and the process has served as a general model for receptor-mediated responses. During chemotaxis in Escherichia coli, chemoattractants, such as sugars and amino acids, and chemorepellents are recognized by specific receptors at the bacterial plasma membrane. For these investigations of multivalent ligand activity, galactose was selected as a model chemoattractant. […] For galactose-mediated signaling, the saccharide must bind to the soluble periplasmic glucose/galactose-binding protein (GGBP), which, in turn, interacts with the galactose-sensing chemoreceptor, Trg. Galactose-GGBP binding to Trg initiates a signaling pathway that results in reversal of the direction of flagellar spin, allowing the bacteria to swim towards the nutrient.
# Galactose-bearing ligands 1-4 of varying defined valencies were generated using ROMP methods (Scheme 1). The galactose residues in the multivalent ligands are tethered to the molecular scaffold (polymer backbone) via a short linker.
# [2] = tested on: B. subtilis 011085; assay: B. subtilis capillary accumulation assay; format: cell-based, Bacillus subtilis
# Text: FIG. 4: Results of B. subtilis capillary accumulation assays using ROMP-derived glucose ligands (compound 5-7, Scheme 1). Buffer alone, glucose, or glucose-bearing compounds 5-7 were used as attractants in the capillary accumulation assay. Results are shown for glucose, compound 5, compound 6, and compound 7. Results are the average of at least four trials performed in duplicate and error bars represent single standard deviations.
# To test the generality of the observed valency-dependent differences in chemotactic activities and to investigate the role of membrane permeability in responses to our ligands, chemotactic experiments in B. subtilis were conducted. B. subtilis is a gram-positive bacterium that, like gram-negative E. coli, is able to respond to saccharide chemoattractants. In the case of B. subtilis, the multivalent ligands can directly interact with saccharide-sensing receptors, without having to first traverse the outer membrane. Glucose is a chemoattractant for B. subtilis, but galactose is not. Glucose-carrying ligands (compounds 5-7, Scheme 1) were effective chemoattractants for B. subtilis as shown in capillary accumulation assays. […] Free chemoattractant signal glucose had maximal activity as a chemoattractant at 0.5 mM. In analogy to observations with E. coli, as the valency of the ligand increases, the saccharide residue concentration of maximum chemotaxis decreases. […] The results observed indicate that in evolutionarily divergent bacteria E. coli and B. subtilis, the valency of the attractant influences chemotactic response.
# E. coli from an overnight culture were grown in LB to OD550 0.4-0.6, washed twice with E. coli chemotaxis buffer, and then partially permeabilized. Bacteria were resuspended in chemotaxis buffer to an OD550 0.1 and utilized in the capillary accumulation assay at 30° C. for 60 min, as previously described. […] Data was analyzed using the Q and Students tests.
# glucose/galactose-binding protein (GGBP), sequence (P0AEE5 24-332 limits assumed): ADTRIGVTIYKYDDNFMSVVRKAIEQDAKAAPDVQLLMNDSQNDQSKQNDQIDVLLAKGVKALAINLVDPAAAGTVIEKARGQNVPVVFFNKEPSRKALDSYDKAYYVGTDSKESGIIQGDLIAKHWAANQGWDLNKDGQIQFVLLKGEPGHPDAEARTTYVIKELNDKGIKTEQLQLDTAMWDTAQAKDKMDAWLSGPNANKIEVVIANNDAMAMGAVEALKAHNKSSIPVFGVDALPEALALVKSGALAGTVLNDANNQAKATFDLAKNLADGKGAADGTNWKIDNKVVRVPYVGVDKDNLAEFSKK
structure (smiles),measurement,setting,value
O=C(NCCOC1OC(CO)C(O)C(O)C1O)C1C[C@@H]2C=CC1C2 (some centres unmarked) [Compound 1],interaction with purified GGBP compared with galactose,[1],at least as favorable as that of galactose
same,chemoattractant activity for B. subtilis,[2],not chemoattractants
